US20060069132A1, “Azolecarboxamide herbicides” (priority 2004, published 2006)
Like-named read-outs stand apart in the source and are kept apart here.

Legend:
barnyardgrass = experiment: Test B pre-/postemergence herbicide test; type: in vivo, Echinochloa crus-galli; conditions: Echinochloa crus-galli; for pest or weed control at 500 g/ha: 500 g ai/ha; for pest or weed control at 125 g/ha: 125 g ai/ha
Outline: (§1)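 Plants compared with untreated controls 13–15 days post-treatment and given a visual 0–100 injury score. Applications: preemergence to seeds; postemergence at 1- to 4-leaf (2–18 cm); paddy species flooded, 2-leaf stage. Vehicle non-phytotoxic, surfactant included.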

Surinam grass = experiment: Test B pre-/postemergence herbicide test; type: in vivo, Urochloa decumbens; conditions: Urochloa decumbens; for pest or weed control at 500 g/ha: 500 g ai/ha; for pest or weed control at 125 g/ha: 125 g ai/ha
Outline: (§2)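 Response was scored visually 13 to 15 days after treatment against untreated greenhouse controls, 0 meaning no effect and 100 complete control. Formulations (solvent mixture plus surfactant) went onto soil after planting, onto foliage of 1- to 4-leaf plants, and onto 2-leaf plants in a flooded paddy set including rice and barnyardgrass.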

corn = experiment: Test B pre-/postemergence herbicide test; type: in vivo, Zea mays; conditions: Zea mays
Outline: as §2

large crabgrass = experiment: Test B pre-/postemergence herbicide test; type: in vivo, Digitaria sanguinalis; conditions: Digitaria sanguinalis; for pest or weed control at 500 g/ha: 500 g ai/ha; for pest or weed control at 125 g/ha: 125 g ai/ha
Outline: as §2

giant foxtail = experiment: Test B pre-/postemergence herbicide test; type: in vivo, Setaria faberi; conditions: Setaria faberi, 336 h; for pest or weed control at 500 g/ha: 500 g ai/ha; for pest or weed control at 125 g/ha: 125 g ai/ha
Outline: as §2

lambsquarters = experiment: Test B pre-/postemergence herbicide test; type: in vivo, Chenopodium album; conditions: Chenopodium album, 336 h; for pest or weed control at 500 g/ha: 500 g ai/ha; for pest or weed control at 125 g/ha: 125 g ai/ha
Outline: as §2

morningglory = experiment: Test B pre-/postemergence herbicide test; type: in vivo, Ipomoea coccinea; conditions: Ipomoea, 336 h; for pest or weed control at 500 g/ha: 500 g ai/ha; for pest or weed control at 125 g/ha: 125 g ai/ha
Outline: as §1

pigweed = experiment: Test B pre-/postemergence herbicide test; type: in vivo, Amaranthus retroflexus; conditions: Amaranthus retroflexus, 336 h; for pest or weed control at 500 g/ha: 500 g ai/ha; for pest or weed control at 125 g/ha: 125 g ai/ha
Outline: as §2

velvetleaf = experiment: Test B pre-/postemergence herbicide test; type: in vivo, Abutilon theophrasti; conditions: Abutilon theophrasti, 336 h; for pest or weed control at 500 g/ha: 500 g ai/ha; for pest or weed control at 125 g/ha: 125 g ai/ha
Outline: as §2

blackgrass = experiment: Test B postemergence herbicide test; type: in vivo, Alopecurus myosuroides; conditions: Postemergence, 500 g ai/ha; visual rating after 13 to 15 days, scale 0 (no effect) to 100 (complete control)
Outline: (§3)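 Formulated test chemicals went onto postemergence plants measuring 2 to 18 cm, at one to four leaves. For the paddy assay, species had reached two leaves. Scoring took place 13–15 days later by eye, relative to untreated plants, using 0 for no effect up to 100 for full control.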

wheat = experiment: Test B postemergence herbicide test; type: in vivo, Triticum aestivum; conditions: scale 0 (no effect) to 100 (complete control)
Outline: (§4)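 After treating 2-leaf paddy plants or 2–18 cm postemergence plants (1 to 4 leaves) with formulated chemical, researchers kept them in a greenhouse for 13–15 days. Effects were judged visually versus controls: 0 indicates none, 100 total control.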

wild oat = experiment: Test B postemergence herbicide test; type: in vivo, Avena fatua; conditions: scale 0 (no effect) to 100 (complete control)
Outline: as §4

rice = experiment: Test B flooded paddy test; type: in vivo, Oryza sativa; conditions: Oryza sativa, 336 h, 1000 g ai/ha, visual rating, scale 0 to 100 (0 no effect, 100 complete control), 13 to 15 days, read-out: Rice plant response rating
Outline: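 Postemergence plants were sprayed with formulated test chemicals at 2 to 18 cm height (1- to 4-leaf stage); paddy species were grown to the 2-leaf stage. After 13 to 15 days in a greenhouse, injury was rated visually against untreated controls on a 0–100 scale (0 = no effect, 100 = complete control).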

[1] = test system: small flower umbrella sedge; experiment: Test B flooded paddy test; type: in vivo, Cyperus difformis; conditions: Cyperus difformis, 336 h, 1000 g ai/ha, visual rating, scale 0 to 100 (0 no effect, 100 complete control), 13 to 15 days, read-out: Sedge, Umbrella plant response rating
Outline: as §3

ducksalad = experiment: Test B flooded paddy test; type: in vivo, Heteranthera limosa; conditions: Heteranthera limosa, 336 h, 1000 g ai/ha, visual rating, scale 0 to 100 (0 no effect, 100 complete control), 13 to 15 days, read-out: Ducksalad plant response rating
Outline: as §3

[2] = Postemergence, 500 g ai/ha, visual rating after 13 to 15 days

Compound CCn1nc(C(C)(C)C)cc1C(=O)Nc1cccc2c1CN(C)C2=O [Compound 55, N-(2,3-dihydro-2-methyl-1-oxo-1H-isoindol-4-yl)-3-(1,1-dimethylethyl)-1-ethyl-1H-pyrazole-5-carboxamide] has a pest or weed control at 500 g/ha (barnyardgrass; post-emergence, Postemergence, visual rating after 13 to 15 days, scale 0 (no effect) to 100 (complete control), read-out: Plant response rating, Barnyardgrass) of 10%, a pest or weed control at 125 g/ha (barnyardgrass; post-emergence, postemergence, visual rating, scale 0 (no effect) to 100 (complete control), read-out: Barnyardgrass plant response rating) of 10% and a pest or weed control at 500 g/ha (barnyardgrass; pre-emergence, Preemergence, scale 0 to 100, read-out: Barnyardgrass plant response rating) of 100%. The pest or weed control at 125 g/ha (barnyardgrass; pre-emergence, preemergence, 0 to 100 scale, 0 is no effect, 100 is complete control, read-out: Plant response rating, Barnyardgrass) was 80%, the pest or weed control at 500 g/ha (Surinam grass; post-emergence, Postemergence, visual rating after 13 to 15 days, scale 0 (no effect) to 100 (complete control), read-out: Plant response rating, Surinam Grass) was 10% and the pest or weed control at 125 g/ha (Surinam grass; post-emergence, postemergence, visual rating, scale 0 (no effect) to 100 (complete control), read-out: Surinam Grass plant response rating) was 10%. It also gave a pest or weed control at 500 g/ha (Surinam grass; pre-emergence, Preemergence, scale 0 to 100, read-out: Surinam Grass plant response rating) of 80%, a pest or weed control at 125 g/ha (Surinam grass; pre-emergence, preemergence, 0 to 100 scale, 0 is no effect, 100 is complete control, read-out: Plant response rating, Surinam Grass) of 50% and a Corn plant response rating (crop injury, 0 = no effect, 100 = complete kill) at 500 g/ha (corn; post-emergence, Postemergence, 500 g ai/ha, visual rating after 13 to 15 days, scale 0 (no effect) to 100 (complete control)) of 30%. It also gave a plant injury at 125 g/ha (corn; post-emergence, postemergence, 125 g ai/ha, visual rating, scale 0 (no effect) to 100 (complete control), read-out: Corn plant response rating) of 20%, a plant injury at 500 g/ha (corn; pre-emergence, Preemergence, 500 g ai/ha, scale 0 to 100, read-out: Corn plant response rating) of 20% and a Corn plant response rating (crop injury, 0 = no effect, 100 = complete kill) at 125 g/ha (corn; pre-emergence, preemergence, 125 g ai/ha, 0 to 100 scale, 0 is no effect, 100 is complete control) of 0%. The pest or weed control at 500 g/ha (large crabgrass; post-emergence, Postemergence, visual rating after 13 to 15 days, scale 0 (no effect) to 100 (complete control), read-out: Plant response rating, Crabgrass, Large) was 10%, the pest or weed control at 125 g/ha (large crabgrass; post-emergence, postemergence, visual rating, scale 0 (no effect) to 100 (complete control), read-out: Crabgrass, Large plant response rating) was 10% and the pest or weed control at 500 g/ha (large crabgrass; pre-emergence, Preemergence, scale 0 to 100, read-out: Crabgrass, Large plant response rating) was 100%. The pest or weed control at 125 g/ha (large crabgrass; pre-emergence, preemergence, 0 to 100 scale, 0 is no effect, 100 is complete control, read-out: Plant response rating, Crabgrass, Large) was 90%, the pest or weed control at 500 g/ha (giant foxtail; post-emergence, Postemergence, visual rating after 13 to 15 days, scale 0 (no effect) to 100 (complete control), read-out: Plant response rating, Foxtail, Giant) was 10% and the pest or weed control at 125 g/ha (giant foxtail; post-emergence, postemergence, visual rating, scale 0 (no effect) to 100 (complete control), read-out: Foxtail, Giant plant response rating) was 0%. It also gave a pest or weed control at 500 g/ha (giant foxtail; pre-emergence, Preemergence, scale 0 to 100, read-out: Foxtail, Giant plant response rating) of 100%, a pest or weed control at 125 g/ha (giant foxtail; pre-emergence, preemergence, 0 to 100 scale, 0 is no effect, 100 is complete control, read-out: Plant response rating, Foxtail, Giant) of 60% and a pest or weed control at 500 g/ha (lambsquarters; post-emergence, Postemergence, visual rating after 13 to 15 days, scale 0 (no effect) to 100 (complete control), read-out: Plant response rating, Lambsquarters) of 70%. For the same compound, the pest or weed control at 125 g/ha (lambsquarters; post-emergence, postemergence, visual rating, scale 0 (no effect) to 100 (complete control), read-out: Lambsquarters plant response rating) was 70%, the pest or weed control at 500 g/ha (lambsquarters; pre-emergence, Preemergence, scale 0 to 100, read-out: Lambsquarters plant response rating) was 100% and the pest or weed control at 125 g/ha (lambsquarters; pre-emergence, preemergence, 0 to 100 scale, 0 is no effect, 100 is complete control, read-out: Plant response rating, Lambsquarters) was 70%. The pest or weed control at 500 g/ha (morningglory; post-emergence, Postemergence, visual rating after 13 to 15 days, scale 0 (no effect) to 100 (complete control), read-out: Plant response rating, Morningglory) was 10%, the pest or weed control at 125 g/ha (morningglory; post-emergence, postemergence, visual rating, scale 0 (no effect) to 100 (complete control), read-out: Morningglory plant response rating) was 10% and the pest or weed control at 500 g/ha (morningglory; pre-emergence, Preemergence, scale 0 to 100, read-out: Morningglory plant response rating) was 10%. It also gave a pest or weed control at 125 g/ha (morningglory; pre-emergence, preemergence, 0 to 100 scale, 0 is no effect, 100 is complete control, read-out: Plant response rating, Morningglory) of 0%, a pest or weed control at 500 g/ha (pigweed; post-emergence, Postemergence, visual rating after 13 to 15 days, scale 0 (no effect) to 100 (complete control), read-out: Plant response rating, Pigweed) of 40% and a pest or weed control at 125 g/ha (pigweed; post-emergence, postemergence, visual rating, scale 0 (no effect) to 100 (complete control), read-out: Pigweed plant response rating) of 10%. The pest or weed control at 500 g/ha (pigweed; pre-emergence, Preemergence, scale 0 to 100, read-out: Pigweed plant response rating) was 100%, the pest or weed control at 125 g/ha (pigweed; pre-emergence, preemergence, 0 to 100 scale, 0 is no effect, 100 is complete control, read-out: Plant response rating, Pigweed) was 80% and the pest or weed control at 500 g/ha (velvetleaf; post-emergence, Postemergence, visual rating after 13 to 15 days, scale 0 (no effect) to 100 (complete control), read-out: Plant response rating, Velvetleaf) was 40%. It also gave a pest or weed control at 125 g/ha (velvetleaf; post-emergence, postemergence, visual rating, scale 0 (no effect) to 100 (complete control), read-out: Velvetleaf plant response rating) of 20%, a pest or weed control at 500 g/ha (velvetleaf; pre-emergence, Preemergence, scale 0 to 100, read-out: Velvetleaf plant response rating) of 30% and a pest or weed control at 125 g/ha (velvetleaf; pre-emergence, preemergence, 0 to 100 scale, 0 is no effect, 100 is complete control, read-out: Plant response rating, Velvetleaf) of 0%. The “Plant response rating, Blackgrass” value (blackgrass) was 10, the “Plant response rating, Wheat” value (wheat; [2]) was 10 and the plant injury at 125 g/ha (wheat; Triticum aestivum, post-emergence, 336 h, postemergence, 125 g ai/ha, visual rating, read-out: Wheat plant response rating) was 10%. For the same compound, the pest or weed control at 125 g/ha (wild oat; Avena fatua, post-emergence, 336 h, postemergence, 125 g ai/ha, visual rating, read-out: Oat, Wild plant response rating) was 10%, the “Plant response rating, Oat, Wild” value (wild oat; [2]) was 20 and the plant injury at 1000 g/ha (rice) was 70%. It also gave a pest or weed control at 1000 g/ha [1] of 80% and a pest or weed control at 1000 g/ha (ducksalad) of 80%.
